Measurements as given in the NIST ThermoML archive (doi:10.1016/j.fluid.2010.01.027).
± gives the expanded uncertainty stated by the source.

Experiment: wn = mass fraction of the nth substance listed
Conditions: Gas, sonar gas analyzer

FC(F)(F)C(F)(F)C(F)(F)F [octafluoropropane] + FC(F)(F)C(F)(F)C(F)(F)C(F)(F)F
speed of sound [m/s]
Conditions	w1 = 0.397	w1 = 0.83
248.2 K, 10 kPa	–	105.12 ± 1.2
248.2 K, 13 kPa	–	105.03 ± 1.2
248.2 K, 20 kPa	–	104.84 ± 1.2
248.2 K, 27 kPa	–	104.58 ± 1.2
248.2 K, 30 kPa	–	104.45 ± 1.2
248.2 K, 33 kPa	–	104.36 ± 1.2
248.2 K, 40 kPa	–	104.12 ± 1.2
248.2 K, 47 kPa	–	103.84 ± 1.2
248.2 K, 50 kPa	–	103.75 ± 1.2
248.2 K, 53 kPa	–	103.57 ± 1.2
248.2 K, 60 kPa	–	103.27 ± 1.2
248.2 K, 67 kPa	–	103.07 ± 1.2
259.2 K, 10 kPa	102.59 ± 1.2	107.4 ± 1.2
259.2 K, 20 kPa	102.16 ± 1.2	107.18 ± 1.2
259.2 K, 30 kPa	101.68 ± 1.2	106.95 ± 1.2
259.2 K, 50 kPa	101.06 ± 1.2	106.3 ± 1.2
259.2 K, 70 kPa	100.12 ± 1.2	105.81 ± 1.2
259.2 K, 100 kPa	–	104.56 ± 1.2
259.2 K, 150 kPa	–	102.68 ± 1.2
259.2 K, 200 kPa	–	101.95 ± 1.2
271.3 K, 10 kPa	–	109.58 ± 1.2
271.3 K, 20 kPa	–	109.17 ± 1.2
271.3 K, 30 kPa	–	108.68 ± 1.2
271.3 K, 50 kPa	–	107.95 ± 1.2
271.3 K, 70 kPa	–	107.66 ± 1.2
271.3 K, 100 kPa	–	106.4 ± 1.2
271.3 K, 150 kPa	–	104.9 ± 1.2
271.3 K, 200 kPa	–	103.44 ± 1.2
271.3 K, 250 kPa	–	102.59 ± 1.2
271.4 K, 10 kPa	104.64 ± 1.2	–
271.4 K, 20 kPa	104.3 ± 1.2	–
271.4 K, 30 kPa	103.82 ± 1.2	–
271.4 K, 50 kPa	103.1 ± 1.2	–
271.4 K, 70 kPa	102.4 ± 1.2	–
271.4 K, 100 kPa	101.14 ± 1.2	–
271.4 K, 150 kPa	99.12 ± 1.2	–
283.1 K, 10 kPa	106.56 ± 1.2	112.12 ± 1.2
283.1 K, 20 kPa	106.36 ± 1.2	111.72 ± 1.2
283.1 K, 30 kPa	105.98 ± 1.2	111.47 ± 1.2
283.1 K, 50 kPa	105.5 ± 1.2	111.19 ± 1.2
283.1 K, 70 kPa	104.76 ± 1.2	110.59 ± 1.2
283.1 K, 100 kPa	103.71 ± 1.2	109.75 ± 1.2
283.1 K, 150 kPa	101.86 ± 1.2	108.4 ± 1.2
283.1 K, 200 kPa	100.08 ± 1.2	106.92 ± 1.2
283.1 K, 250 kPa	–	105.34 ± 1.2
283.1 K, 297 kPa	–	103.72 ± 1.2
283.1 K, 350 kPa	–	101.99 ± 1.2
283.1 K, 400 kPa	–	100.1 ± 1.2
294 K, 10 kPa	109.01 ± 1.2	–
294 K, 20 kPa	108.7 ± 1.2	–
294 K, 30 kPa	108.4 ± 1.2	–
294 K, 50 kPa	107.67 ± 1.2	–
294 K, 70 kPa	107.07 ± 1.2	–
294 K, 100 kPa	106.22 ± 1.2	–
294 K, 150 kPa	104.61 ± 1.2	–
294 K, 200 kPa	103.01 ± 1.2	–
294.1 K, 10 kPa	–	114.96 ± 1.2
294.1 K, 20 kPa	–	114.62 ± 1.2
294.1 K, 30 kPa	–	114.35 ± 1.2
294.1 K, 50 kPa	–	113.75 ± 1.2
294.1 K, 70 kPa	–	113.21 ± 1.2
294.1 K, 100 kPa	–	112.3 ± 1.2
294.1 K, 150 kPa	–	111 ± 1.2
294.1 K, 200 kPa	–	109.85 ± 1.2
301.4 K, 10 kPa	–	116.15 ± 1.2
301.4 K, 20 kPa	–	116.05 ± 1.2
301.4 K, 30 kPa	–	115.78 ± 1.2
301.4 K, 50 kPa	–	115.29 ± 1.2
301.4 K, 70 kPa	–	114.72 ± 1.2
301.4 K, 100 kPa	–	114.03 ± 1.2
301.4 K, 150 kPa	–	112.72 ± 1.2
301.4 K, 200 kPa	–	111.59 ± 1.2
302.1 K, 10 kPa	110.14 ± 1.2	–
302.1 K, 20 kPa	109.74 ± 1.2	–
302.1 K, 30 kPa	109.67 ± 1.2	–
302.1 K, 50 kPa	109.29 ± 1.2	–
302.1 K, 70 kPa	108.73 ± 1.2	–
302.1 K, 100 kPa	107.89 ± 1.2	–
